Data from ChEMBL document CHEMBL1909046, “DrugMatrix in vitro pharmacology data”.
*1 amine or outer side, *2 acyl side, *3 side chain or, on linkers, in order; H or OH if unused. Where a SMILES comes first, the peptide text is derived from it. Bridges are numbered along the chain shown (N, C = ends). Roman numbers before positions name the chains, in order. [ ]: non-standard residue; d: D form. Actinocin(1to9) = Cc1c2oc3c(C)ccc(C(=O)[*:2])c3nc-2c(C(=O)[*:1])c(N)c1=O; NMeV = CN[C@H](C(=O)O)C(C)C; Sar = CNCC(=O)O

Assays:
D(1A) dopamine receptor = D(1A) dopamine receptor (Homo sapiens, UniProt P21728); assay: DRUGMATRIX: Dopamine D1 radioligand binding (ligand: [3H] SCH-23390); format: cell membranes, CHO, Membrane; settings: cho; Not Active = under 50% inhibition at 10 µM
Cytochrome P450 1A2 = target: T1, Cytochrome P450 1A2 (Homo sapiens, UniProt P05177); settings: bti-tn-5b1-4; further: in other assays of this panel Not Active means under 50% inhibition at 10 µM
T1 sequence (P05177 whole entry): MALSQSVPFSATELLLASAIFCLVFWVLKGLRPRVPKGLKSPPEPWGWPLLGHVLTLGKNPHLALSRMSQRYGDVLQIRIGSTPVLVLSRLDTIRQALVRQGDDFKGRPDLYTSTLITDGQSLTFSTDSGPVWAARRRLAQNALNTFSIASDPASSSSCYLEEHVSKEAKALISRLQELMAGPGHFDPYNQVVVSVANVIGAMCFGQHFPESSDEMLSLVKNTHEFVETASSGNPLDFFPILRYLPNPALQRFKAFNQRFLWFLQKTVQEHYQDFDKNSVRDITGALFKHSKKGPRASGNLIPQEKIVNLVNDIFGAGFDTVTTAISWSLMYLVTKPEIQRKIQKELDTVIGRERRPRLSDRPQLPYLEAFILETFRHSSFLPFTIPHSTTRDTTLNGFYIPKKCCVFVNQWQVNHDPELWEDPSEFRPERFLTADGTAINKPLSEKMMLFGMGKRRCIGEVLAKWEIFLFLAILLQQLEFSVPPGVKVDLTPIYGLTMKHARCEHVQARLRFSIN

[1] = target: Voltage-gated inwardly rectifying potassium channel KCNH2 (Homo sapiens, UniProt Q12809); settings: hek293; further: in other assays of this panel Not Active means under 50% inhibition at 10 µM
D(4) dopamine receptor = target: T2, D(4) dopamine receptor (Homo sapiens, UniProt P21917); assay: DRUGMATRIX: Dopamine D4.2 radioligand binding (ligand: [3H] Spiperone); format: cell membranes, CHO-K1, Membrane; settings: cho-k1; Not Active = under 50% inhibition at 10 µM
T2 sequence (P21917 whole entry): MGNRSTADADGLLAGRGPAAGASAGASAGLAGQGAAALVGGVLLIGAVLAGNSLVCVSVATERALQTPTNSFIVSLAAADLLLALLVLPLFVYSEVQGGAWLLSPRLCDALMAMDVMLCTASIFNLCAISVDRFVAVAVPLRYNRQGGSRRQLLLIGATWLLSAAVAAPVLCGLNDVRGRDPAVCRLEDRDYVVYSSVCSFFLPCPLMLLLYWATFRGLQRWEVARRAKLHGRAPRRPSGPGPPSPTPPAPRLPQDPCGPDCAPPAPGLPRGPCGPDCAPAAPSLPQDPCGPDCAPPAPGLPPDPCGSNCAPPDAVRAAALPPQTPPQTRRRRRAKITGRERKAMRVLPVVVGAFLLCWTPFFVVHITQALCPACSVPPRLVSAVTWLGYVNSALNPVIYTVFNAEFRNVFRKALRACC

Leukotriene C4 synthase = target: T3, Leukotriene C4 synthase (Cavia porcellus, UniProt A6XA80); format: tissue-based, Lung;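 further: enzyme inhibition assay of leukotriene C4 synthase, using LTA4 as the substrate; in other assays of this panel Not Active means under 50% inhibition at 10 µM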
T3 sequence (A6XA80 whole entry): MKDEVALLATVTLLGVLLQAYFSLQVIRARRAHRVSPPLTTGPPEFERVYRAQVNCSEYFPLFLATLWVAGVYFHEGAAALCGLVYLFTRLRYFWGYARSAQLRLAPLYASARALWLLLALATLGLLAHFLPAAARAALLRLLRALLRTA

[2] = target: Beta-3 adrenergic receptor (Homo sapiens, UniProt P13945); assay: DRUGMATRIX: Adrenergic beta3 radioligand binding (ligand: [125I] Cyanopindolol); format: cell membranes, HEK293, Membrane; settings: hek293; Not Active = under 50% inhibition at 10 µM
[3] = target: C-C chemokine receptor type 5 (Homo sapiens, UniProt P51681); format: cell membranes, Membrane; settings: hek293; further: in other assays of this panel Not Active means under 50% inhibition at 10 µM
Chain of C-C chemokine receptor type 5 (P51681 whole entry): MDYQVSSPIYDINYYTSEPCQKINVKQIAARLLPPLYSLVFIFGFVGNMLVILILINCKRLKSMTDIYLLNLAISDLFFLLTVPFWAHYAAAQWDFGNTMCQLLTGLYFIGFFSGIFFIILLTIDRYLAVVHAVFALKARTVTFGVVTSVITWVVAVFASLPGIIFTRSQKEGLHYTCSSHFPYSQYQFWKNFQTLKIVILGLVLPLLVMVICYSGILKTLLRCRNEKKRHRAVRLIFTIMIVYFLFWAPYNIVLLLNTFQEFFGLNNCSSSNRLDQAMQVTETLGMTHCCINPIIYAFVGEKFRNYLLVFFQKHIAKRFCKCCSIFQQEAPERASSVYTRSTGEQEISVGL

Chain of Beta-3 adrenergic receptor (P13945 whole entry): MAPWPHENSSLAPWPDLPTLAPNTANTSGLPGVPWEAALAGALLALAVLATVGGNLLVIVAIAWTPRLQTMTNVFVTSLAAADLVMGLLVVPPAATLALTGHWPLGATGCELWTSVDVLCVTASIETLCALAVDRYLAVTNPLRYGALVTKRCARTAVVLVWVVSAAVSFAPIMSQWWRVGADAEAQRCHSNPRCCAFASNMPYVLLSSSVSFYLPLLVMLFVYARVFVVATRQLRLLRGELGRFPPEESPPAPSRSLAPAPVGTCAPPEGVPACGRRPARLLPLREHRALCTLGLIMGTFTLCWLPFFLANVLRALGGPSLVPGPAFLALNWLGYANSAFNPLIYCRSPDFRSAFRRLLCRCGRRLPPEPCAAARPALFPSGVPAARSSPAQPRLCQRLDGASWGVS
Chain of Voltage-gated inwardly rectifying potassium channel KCNH2 (Q12809 whole entry): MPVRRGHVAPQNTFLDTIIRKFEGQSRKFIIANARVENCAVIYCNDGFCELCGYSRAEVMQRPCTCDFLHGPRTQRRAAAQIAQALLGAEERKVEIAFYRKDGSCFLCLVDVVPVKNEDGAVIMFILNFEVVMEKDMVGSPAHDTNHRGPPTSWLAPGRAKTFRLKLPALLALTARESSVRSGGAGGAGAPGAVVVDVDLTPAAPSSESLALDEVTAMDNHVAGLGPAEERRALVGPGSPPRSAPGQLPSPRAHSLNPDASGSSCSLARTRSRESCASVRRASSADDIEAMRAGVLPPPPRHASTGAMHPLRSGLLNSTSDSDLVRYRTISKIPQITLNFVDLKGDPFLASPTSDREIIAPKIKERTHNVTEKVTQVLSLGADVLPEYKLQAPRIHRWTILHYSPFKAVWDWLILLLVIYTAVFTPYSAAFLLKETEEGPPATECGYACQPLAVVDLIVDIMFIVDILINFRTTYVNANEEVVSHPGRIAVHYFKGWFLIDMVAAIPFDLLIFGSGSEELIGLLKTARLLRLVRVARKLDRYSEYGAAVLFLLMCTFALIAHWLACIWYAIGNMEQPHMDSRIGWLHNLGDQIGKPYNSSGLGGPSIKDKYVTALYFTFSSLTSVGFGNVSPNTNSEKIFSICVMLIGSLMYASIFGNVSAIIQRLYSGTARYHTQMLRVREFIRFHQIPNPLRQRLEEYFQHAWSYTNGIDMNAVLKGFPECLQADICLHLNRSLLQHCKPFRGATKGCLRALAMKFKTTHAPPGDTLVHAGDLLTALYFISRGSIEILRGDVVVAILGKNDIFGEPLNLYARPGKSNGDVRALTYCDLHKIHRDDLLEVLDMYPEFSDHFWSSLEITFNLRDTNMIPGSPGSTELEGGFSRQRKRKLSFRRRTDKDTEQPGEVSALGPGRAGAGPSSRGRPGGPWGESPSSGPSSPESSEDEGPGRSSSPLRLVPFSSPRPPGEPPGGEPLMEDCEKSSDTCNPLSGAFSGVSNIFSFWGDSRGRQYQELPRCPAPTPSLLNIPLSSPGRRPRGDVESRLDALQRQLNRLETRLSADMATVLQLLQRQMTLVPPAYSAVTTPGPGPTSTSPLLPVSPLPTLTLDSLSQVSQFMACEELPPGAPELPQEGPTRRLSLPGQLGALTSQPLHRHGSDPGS
Chain of D(1A) dopamine receptor (P21728 whole entry): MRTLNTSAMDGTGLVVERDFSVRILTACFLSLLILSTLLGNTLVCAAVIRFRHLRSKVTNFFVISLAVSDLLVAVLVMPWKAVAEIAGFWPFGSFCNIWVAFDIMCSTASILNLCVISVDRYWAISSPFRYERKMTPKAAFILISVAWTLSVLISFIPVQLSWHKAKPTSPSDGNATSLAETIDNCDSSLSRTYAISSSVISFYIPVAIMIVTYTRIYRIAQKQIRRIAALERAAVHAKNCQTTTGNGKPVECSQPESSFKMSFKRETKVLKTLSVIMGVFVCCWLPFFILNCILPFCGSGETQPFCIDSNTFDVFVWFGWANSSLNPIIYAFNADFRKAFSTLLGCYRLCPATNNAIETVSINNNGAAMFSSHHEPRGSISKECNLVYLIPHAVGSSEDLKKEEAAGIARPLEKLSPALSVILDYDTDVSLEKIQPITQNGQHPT

LIPOPOLYSACCHARIDE E. COLI O55:B5
Not Active: IC50 (D(1A) dopamine receptor) | Ki (D(1A) dopamine receptor) | IC50 (Cytochrome P450 1A2) | Ki (Cytochrome P450 1A2) | IC50 [1] | Ki [1] | IC50 (D(4) dopamine receptor) | Ki (D(4) dopamine receptor) | IC50 (Leukotriene C4 synthase) | Ki (Leukotriene C4 synthase) | IC50 [2] | Ki [2] | IC50 [3] | Ki [3]

NCCCCCC(=O)O [AMINOCAPROIC ACID]
Not Active: IC50 (D(1A) dopamine receptor) | IC50 (Cytochrome P450 1A2) | Ki (Cytochrome P450 1A2) | IC50 [1] | Ki [1] | IC50 (D(4) dopamine receptor) | IC50 (Leukotriene C4 synthase) | IC50 [2] | IC50 [3]

CCC(C)n1ncn(-c2ccc(N3CCN(c4ccc(OCC5COC(Cn6cncn6)(c6ccc(Cl)cc6Cl)O5)cc4)CC3)cc2)c1=O (stereo not drawn) [ITRACONAZOLE]
Not Active: IC50 (D(1A) dopamine receptor) | IC50 (Cytochrome P450 1A2) | Ki (Cytochrome P450 1A2) | IC50 [1] | Ki [1] | IC50 (D(4) dopamine receptor) | IC50 (Leukotriene C4 synthase) | IC50 [2] | IC50 [3]

Cc1c(C)c2c(c(C)c1O)CC[C@@](C)(CCC[C@H](C)CCC[C@H](C)CCCC(C)C)O2 [ALPHA-TOCOPHEROL]
Not Active: IC50 (D(1A) dopamine receptor) | IC50 (Cytochrome P450 1A2) | Ki (Cytochrome P450 1A2) | IC50 [1] | Ki [1] | IC50 (D(4) dopamine receptor) | IC50 (Leukotriene C4 synthase) | IC50 [2] | IC50 [3]

Cc1cc(C(C#N)c2ccc(Cl)cc2)c(Cl)cc1NC(=O)c1cc(I)cc(I)c1O (stereo not drawn) [CLOSANTEL]
Not Active: IC50 (D(1A) dopamine receptor) | IC50 (Cytochrome P450 1A2) | Ki (Cytochrome P450 1A2) | IC50 [1] | Ki [1] | IC50 (D(4) dopamine receptor) | IC50 (Leukotriene C4 synthase) | IC50 [2] | IC50 [3]

CNNCc1ccc(C(=O)NC(C)C)cc1 [PROCARBAZINE]
Not Active: IC50 (D(1A) dopamine receptor) | IC50 (Cytochrome P450 1A2) | Ki (Cytochrome P450 1A2) | IC50 [1] | Ki [1] | IC50 (D(4) dopamine receptor) | IC50 (Leukotriene C4 synthase) | IC50 [2] | IC50 [3]

Cc1ccc(/N=C/N(C)/C=N/c2ccc(C)cc2C)c(C)c1 [AMITRAZ]
Not Active: IC50 (D(1A) dopamine receptor) | IC50 (Cytochrome P450 1A2) | Ki (Cytochrome P450 1A2) | IC50 [1] | Ki [1] | IC50 (D(4) dopamine receptor) | IC50 (Leukotriene C4 synthase) | IC50 [2] | IC50 [3]

CNCCc1ccccn1 [BETAHISTINE]
Not Active: IC50 (D(1A) dopamine receptor) | IC50 (Cytochrome P450 1A2) | Ki (Cytochrome P450 1A2) | IC50 [1] | Ki [1] | IC50 (D(4) dopamine receptor) | IC50 (Leukotriene C4 synthase) | IC50 [2] | IC50 [3]

OC(Cn1cncn1)(Cn1cncn1)c1ccc(F)cc1F [FLUCONAZOLE]
Not Active: IC50 (D(1A) dopamine receptor) | IC50 (Cytochrome P450 1A2) | Ki (Cytochrome P450 1A2) | IC50 [1] | Ki [1] | IC50 (D(4) dopamine receptor) | IC50 (Leukotriene C4 synthase) | IC50 [2] | IC50 [3]

Cc1c2oc3c(C)ccc(C(=O)N[C@@H]4C(=O)N[C@H](C(C)C)C(=O)N5CCC[C@H]5C(=O)N(C)CC(=O)N(C)[C@@H](C(C)C)C(=O)O[C@@H]4C)c3nc-2c(C(=O)N[C@@H]2C(=O)N[C@H](C(C)C)C(=O)N3CCC[C@H]3C(=O)N(C)CC(=O)N(C)[C@@H](C(C)C)C(=O)O[C@@H]2C)c(N)c1=O [DACTINOMYCIN] (I: T[dV]P[Sar][NMeV] / II: T[dV]P[Sar][NMeV]; ester I:1-I:C, II:1-II:C; linker I:N-II:N via Actinocin(1to9))
Not Active: IC50 (D(1A) dopamine receptor) | IC50 (Cytochrome P450 1A2) | Ki (Cytochrome P450 1A2) | IC50 [1] | Ki [1] | IC50 (D(4) dopamine receptor) | IC50 (Leukotriene C4 synthase) | IC50 [2] | IC50 [3]

Nc1nc(N)nc(-c2cc(Cl)ccc2Cl)n1.O=C(O)/C=C\C(=O)O [IRSOGLADINE MALEATE]
Not Active: IC50 (D(1A) dopamine receptor) | IC50 (Cytochrome P450 1A2) | Ki (Cytochrome P450 1A2) | IC50 [1] | Ki [1] | IC50 (D(4) dopamine receptor) | IC50 (Leukotriene C4 synthase) | IC50 [2] | IC50 [3]

Nc1ncn([C@@H]2O[C@H](CO)[C@@H](O)[C@H]2O)c(=O)n1 [AZACITIDINE]
Not Active: IC50 (D(1A) dopamine receptor) | IC50 (Cytochrome P450 1A2) | Ki (Cytochrome P450 1A2) | IC50 [1] | Ki [1] | IC50 (D(4) dopamine receptor) | IC50 (Leukotriene C4 synthase) | IC50 [2] | IC50 [3]

Cc1cc(C2CCCCC2)n(O)c(=O)c1 [CICLOPIROX]
Not Active: IC50 (D(1A) dopamine receptor) | IC50 (Cytochrome P450 1A2) | Ki (Cytochrome P450 1A2) | IC50 [1] | Ki [1] | IC50 (D(4) dopamine receptor) | IC50 (Leukotriene C4 synthase) | IC50 [2] | IC50 [3]

CCCCc1nc(Cl)c(CO)n1Cc1ccc(-c2ccccc2-c2nnn[nH]2)cc1 [LOSARTAN]
Not Active: IC50 (D(1A) dopamine receptor) | IC50 (Cytochrome P450 1A2) | Ki (Cytochrome P450 1A2) | IC50 [1] | Ki [1] | IC50 (D(4) dopamine receptor) | IC50 (Leukotriene C4 synthase) | IC50 [2] | IC50 [3]

CCCCN1CCCC[C@H]1C(=O)Nc1c(C)cccc1C [LEVOBUPIVACAINE]
Not Active: IC50 (D(1A) dopamine receptor) | IC50 (Cytochrome P450 1A2) | Ki (Cytochrome P450 1A2) | IC50 [1] | Ki [1] | IC50 (D(4) dopamine receptor) | IC50 (Leukotriene C4 synthase) | IC50 [2] | IC50 [3]

Cc1onc(O)c1CC(N)C(=O)O (racemic) [(R,S)-AMPA]
Not Active: IC50 (D(1A) dopamine receptor) | IC50 (Cytochrome P450 1A2) | Ki (Cytochrome P450 1A2) | IC50 [1] | Ki [1] | IC50 (D(4) dopamine receptor) | IC50 (Leukotriene C4 synthase) | IC50 [2] | IC50 [3]

CC1CC(OC(=O)C(O)c2ccccc2)CC(C)(C)C1 (stereo not drawn) [CYCLANDELATE]
Not Active: IC50 (D(1A) dopamine receptor) | IC50 (Cytochrome P450 1A2) | Ki (Cytochrome P450 1A2) | IC50 [1] | Ki [1] | IC50 (D(4) dopamine receptor) | IC50 (Leukotriene C4 synthase) | IC50 [2] | IC50 [3]
